Assay results from PMC8073686, “Characterization of Subtype Selective Cannabinoid CB2 Receptor Agonists as Potential Anti-Inflammatory Agents” (Pharmaceuticals, 2021).
Like-named read-outs stand apart in the source and are kept apart here. Blank lines part the entries; values can stand above or below the compound they belong to.

Legend:
CB2 [1] = molecular target: T1, CB2 (Homo sapiens, UniProt P34972); experiment: Competitive [3H]CP55,940 radioligand binding, CB2-transfected HEK293T cell membrane
T1 construct: expressed in transfected cells; host or cells: HEK293T cells, calcium phosphate transfection, membrane preparation
Text: (§1) To evaluate binding affinity of ABK5 analogs that have a difference in the position of substituents in the N-phenyl ring (Figure 1), we performed competitive radiolabeled ligand binding assays using cell membrane from HEK293T cells transfected with human CB2 receptors. […] ABK5-1, ABK5-2, and ABK5-6 dose-dependently competed with [^3H]CP55,940 and decreased the specific binding of the radiolabeled agonist, which reflects the binding of test compounds to CB2. […] Therefore, ABK5-5 was not considered for further evaluation in this study. […] We also examined CB2 selectivity (versus CB1) of the three compounds by performing similar binding assays using membrane from CB1 expressing HEK293 cells instead of CB2 expressing cells. […] Therefore, ABK5-1 and 5-2 maintained the CB2 subtype selectivity of ABK5.
(§2) In the experiment, 1 × 10^6 HEK293T cells were seeded in a 10-cm cell culture dish and cultured for 24 h. Cells were transfected with CB1 or CB2 using the calcium phosphate method. Approximately one day after transfection, cells were harvested and centrifuged at 4 °C for 5 min at 500× g. The pellet was washed with phosphate buffered saline (PBS) twice and resuspended in PBS containing 1% protease-inhibitor cocktail (Sigma-Aldrich, St. Louis, MO, USA) consisting of 104 mM 4-(2-aminoethyl) benzene sulfonyl fluoride hydrochloride (AEBSF), 80 μM apronitin, 4 mM bestatin, 1.64 mM E-64, 2 mM leupeptin, 1.5 mM pepstatin A. Then the cells were subjected to nitrogen cavitation under 750 psi for 5 min using a Parr cell disruption bomb. The lysate was centrifuged at 500× g for 10 min at 4 °C and the supernatant was spun at 116,000× g for 45 min at 4 °C. The pellet, consisting of the cell membrane expressing CB1 or CB2, was resuspended in TME buffer solution (25 mM Tris-HCl, 5 mM MgCl2, and 1 mM EDTA, pH 7.4) with 7% (w/v) sucrose/TME buffer. The concentration of the membrane protein was determined by the Bradford assay (Bradford, 1976).
Membrane protein was mixed with 1 nM to 10 μM of the test compounds and 1 nM [^3H]CP55,940 (164.9 Ci/mmol; PerkinElmer life Sciences, Waltham, MA, USA), and TME buffer supplemented with 0.2% BSA was used to bring the total volume to 200 μL. [^3H]CP55,940 acts as tracer and agonists that bind the target receptor compete with [^3H]CP55,940. Samples were incubated for 1 h at 30 °C. Ten μM unlabeled CP55,940 was used to determine non-specific binding. […] A Beckman Coulter 6500 liquid scintillation counter was used to measure the radioactivity of the samples.
Results are presented as the mean ± standard deviation (S.D.). […] The Ki values in the ligand binding assay were calculated using the Prism software (GraphPad Software Inc., San Diego, CA, USA), using IC50 values obtained from non-linear regression fitted to the one-site binding model. […]

CB2 [2] = molecular target: T1, CB2; design: method as in PMID 30951717; settings: competition with [3H]CP55,940; determined previously; cited from earlier work
CB1 receptor [3] = molecular target: T2, CB1 receptor (Homo sapiens, UniProt P21554); design: method as in PMID 30951717; settings: cited from earlier work
T2 construct: expressed in transfected cells; host or cells: HEK293T cells (called 'HEK293 cells' in Results), calcium phosphate transfection, membrane preparation

CB2 [4] = molecular target: T1, CB2; design: method as in PMID 30951717; settings: stimulation of [35S]GTPγS binding; determined previously; cited from earlier work
[5] = system: TNF-α mRNA in Jurkat cells; design: method as in PMID 33712283; settings: concentration not given; cited from earlier work
[6] = system: TNF-α production in Jurkat cells; design: method as in PMID 33712283; settings: concentration not given; cited from earlier work
CB1 receptor [7] = molecular target: T2, CB1 receptor; experiment: Competitive [3H]CP55,940 radioligand binding, membrane from CB1 expressing HEK293 cells
Text: as §1, §2
Membrane protein was mixed with 1 nM to 10 μM of the test compounds and 1 nM [^3H]CP55,940 (164.9 Ci/mmol; PerkinElmer life Sciences, Waltham, MA, USA), and TME buffer supplemented with 0.2% BSA was used to bring the total volume to 200 μL. [^3H]CP55,940 acts as tracer and agonists that bind the target receptor compete with [^3H]CP55,940. Samples were incubated for 1 h at 30 °C. Ten μM unlabeled CP55,940 was used to determine non-specific binding. Reactions were stopped by adding 5% BSA/TME buffer (w/v) and samples were filtered through a Brandel cell harvester using Whatman GF/C filter paper. Ultima Gold XR liquid scintillation cocktail (PerkinElmer Life Sciences, Waltham, MA, USA) was then added and vortexed. A Beckman Coulter 6500 liquid scintillation counter was used to measure the radioactivity of the samples.
Results are presented as the mean ± standard deviation (S.D.). The ligand binding assays and the GTPγS binding assays were both carried out in duplicate for three independent experiments. The Ki values in the ligand binding assay were calculated using the Prism software (GraphPad Software Inc., San Diego, CA, USA), using IC50 values obtained from non-linear regression fitted to the one-site binding model. The Cheng-Prusoff equation [48], which is used for calculation of Ki value is shown below. (1) Ki=IC50/1+L/Kd

CB2 [8] = molecular target: T1, CB2; experiment: [35S]GTPγS binding assay (G-protein coupling), CB2 containing HEK293T cell membrane; format: biochemical; settings: stimulation of [35S]GTPγS binding; mean ± S.D.
Protocol: We also examined if the compounds can induce G-protein coupling and act as CB2 agonists. Three compounds, ABK5-1, ABK5-2, and ABK5-6, were subjected to [^35S]GTPγS binding assays. Increasing concentrations, from 1 nM to 10 μM of the test compounds, were incubated with CB2 containing HEK293T cell membrane and [^35S]GTPγS, which binds to Gi/o in the membrane upon CB2 activation and G-protein coupling. All three compounds stimulated dose-dependent increases of specific [^35S]GTPγS binding (Figure 3).
as §2
GTPγS binding assay buffer ([…], pH 7.4, 3 mM MgCl2, 0.2 mM EGTA, and 100 mM NaCl) membrane protein, 1 nM to 10 μM of the test compounds, 0.1 nM [^35S] GTPγS (1250 Ci/mmol; PerkinElmer Life Sciences, Waltham, MA, USA), 0.1% fatty acid free BSA (w/v), 10 μM guanosine diphosphate (GDP) and GTPγS was incubated for 1 h at 30 °C with shaking. […] A Beckman Coulter 6500 liquid scintillation counter was used to measure the radioactivity of the samples. […]

T2 sequence (P21554 whole entry): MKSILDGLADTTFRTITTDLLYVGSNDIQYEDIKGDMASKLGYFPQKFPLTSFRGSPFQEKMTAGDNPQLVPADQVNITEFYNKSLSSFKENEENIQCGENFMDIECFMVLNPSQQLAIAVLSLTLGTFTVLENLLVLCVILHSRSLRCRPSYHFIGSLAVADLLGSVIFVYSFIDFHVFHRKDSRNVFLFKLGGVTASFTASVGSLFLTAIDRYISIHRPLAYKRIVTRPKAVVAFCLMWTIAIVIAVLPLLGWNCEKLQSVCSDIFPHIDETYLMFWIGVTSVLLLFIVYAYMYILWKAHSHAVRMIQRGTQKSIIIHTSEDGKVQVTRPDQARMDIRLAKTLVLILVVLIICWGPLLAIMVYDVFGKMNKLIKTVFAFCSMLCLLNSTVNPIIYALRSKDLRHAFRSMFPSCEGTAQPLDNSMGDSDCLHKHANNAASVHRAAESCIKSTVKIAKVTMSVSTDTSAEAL
T1 sequence (P34972 whole entry): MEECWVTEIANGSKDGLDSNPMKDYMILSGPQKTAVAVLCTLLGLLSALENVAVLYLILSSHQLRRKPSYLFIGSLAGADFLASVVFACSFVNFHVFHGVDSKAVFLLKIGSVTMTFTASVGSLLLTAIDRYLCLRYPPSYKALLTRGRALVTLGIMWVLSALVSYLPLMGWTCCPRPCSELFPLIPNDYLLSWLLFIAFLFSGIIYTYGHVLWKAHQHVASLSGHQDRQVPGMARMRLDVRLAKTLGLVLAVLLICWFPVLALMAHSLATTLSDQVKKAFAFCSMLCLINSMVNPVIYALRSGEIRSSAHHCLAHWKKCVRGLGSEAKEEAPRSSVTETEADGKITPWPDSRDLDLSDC

CB2 binding, extent as % of total binding (CB2 [1]; data not shown, Ki not calculated): ≤ 60%
Structure (SMILES): CCOC(=O)c1ccc(NC(=O)CN(c2cccc(C)c2C)S(=O)(=O)c2ccccc2)cc1 [ABK5-5]

Structure (SMILES): CCOC(=O)c1ccccc1NC(=O)CN(c1cccc(C)c1C)S(=O)(=O)c1ccccc1 [ABK5, ethyl 2(2-(N-(2,3-dimethylphenyl)phenylsulfonamido)acetamido)benzoate]
Ki (CB2 [2]): 16 ± 14 nM | Ki CB1 (CP55,940) (CB1 receptor [3]; N.B. = no specific binding detected up to 10 μM, determined previously): N.B. ^c | CB1 binding: no binding detected up to (CB1 receptor [3]): > 10 µM | EC50 (CB2 [4]): 4 ± 3 nM | decrease of TNF-α mRNA [5]: 33% | decrease of TNF-α protein level [6]: 30%

Ki (CB2 [1]; competition with [3H]CP55,940, mean ± S.D.): 14 ± 2 nM | CB1 binding (in words) (CB1 receptor [7]): weak CB1 binding in the micromolar range | Ki (CB1 receptor [7]; competition with [3H]CP55,940, N.B. = no specific binding detected up to 10 μM of test compounds): > 1000 nM | EC50 (CB2 [8]): 10 ± 5 nM
Structure (SMILES): CCOC(=O)c1ccccc1NC(=O)CN(c1cc(C)ccc1C)S(=O)(=O)c1ccccc1 [ABK5-6]
